Reference: PubChem BioAssay (NCI)
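Tested at 5 concentrations; 48 h exposure; 96-well plates; endpoints linearly interpolated, else capped at highest concentration. The concentration for full growth arrest is given as TGI.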

Legend:
Assay in all cases: growth of human tumour cells (NCI), 48 h
[1] = system: 786-0 renal
[2] = system: A498 renal
[3] = system: A549 NSCLC
[4] = system: ACHN renal
[5] = system: BT-549 breast
[6] = system: CAKI-1 renal
[7] = system: CCRF-CEM leukemia
[8] = system: COLO 205 colon
[9] = system: DU-145 prostate
[10] = system: EKVX NSCLC
[11] = system: HCC-2998 colon
[12] = system: HCT-116 colon
[13] = system: HCT-15 colon
[14] = system: HL-60(TB) leukemia
[15] = system: HOP-62 NSCLC
[16] = system: HOP-92 NSCLC
[17] = system: HS 578T breast
[18] = system: HT29 colon
[19] = system: IGROV1 ovarian
[20] = system: K-562 leukemia
[21] = system: KM12 colon
[22] = system: LOX IMVI melanoma
[23] = system: M14 melanoma
[24] = system: MALME-3M melanoma
[25] = system: MCF7 breast
[26] = system: MDA-MB-231 breast
[27] = system: MDA-MB-435
[28] = system: MDA-N
[29] = system: MOLT-4 leukemia
[30] = system: NCI-H226 lung
[31] = system: NCI-H23 lung
[32] = system: NCI-H460 lung
[33] = system: NCI-H522 lung
[34] = system: NCI/ADR-RES ovarian
[35] = system: OVCAR-3 ovarian
[36] = system: OVCAR-4 ovarian
[37] = system: OVCAR-5 ovarian
[38] = system: OVCAR-8 ovarian
[39] = system: PC-3 prostate
[40] = system: RPMI-8226 leukemia
[41] = system: SF-268 CNS
[42] = system: SF-295 CNS
[43] = system: SF-539 CNS
[44] = system: SK-MEL-2 melanoma
[45] = system: SK-MEL-28 melanoma
[46] = system: SK-MEL-5 melanoma
[47] = system: SK-OV-3 ovarian
[48] = system: SN12C renal
[49] = system: SNB-19 CNS
[50] = system: SNB-75 CNS
[51] = system: SR leukemia
[52] = system: SW-620 colon
[53] = system: T-47D breast
[54] = system: TK-10 renal
[55] = system: UACC-257 melanoma
[56] = system: UACC-62 melanoma
[57] = system: UO-31 renal
[58] = system: RXF 393 renal
[59] = system: U251 CNS

## CSc1ccc(-c2cc(-c3nc4ccccc4[nH]3)no2)cc1
[1]
  TGI: > 100 µM
[2]
  TGI: > 100 µM
[3]
  TGI: 90.8 µM
[4]
  TGI: > 100 µM
[5]
  TGI: 55.5 µM
[6]
  TGI: 70 µM
[7]
  TGI: > 100 µM
[8]
  TGI: > 100 µM
[9]
  TGI: > 100 µM
[10]
  TGI: > 100 µM
[11]
  TGI: 32.1 µM
[12]
  TGI: > 100 µM
[13]
  TGI: 62.9 µM
[14]
  TGI: 55.3 µM
[15]
  TGI: > 100 µM
[16]
  TGI: > 100 µM
[17]
  TGI: > 100 µM
[18]
  TGI: 62.1 µM
[19]
  TGI: > 100 µM
[20]
  TGI: 84.4 µM
[21]
  TGI: 68.5 µM
[22]
  TGI: 80.1 µM
[23]
  TGI: 56.2 µM
[24]
  TGI: > 100 µM
[25]
  TGI: 33.8 µM
[26]
  TGI: > 100 µM
[27]
  TGI: 44.7 µM
[28]
  TGI: > 100 µM
[29]
  TGI: 37.2 µM
[30]
  TGI: > 100 µM
[31]
  TGI: 66 µM
[32]
  TGI: 45.7 µM
[33]
  TGI: 69.5 µM
[34]
  TGI: 64.1 µM
[35]
  TGI: 55.7 µM
[36]
  TGI: 19.3 µM
[37]
  TGI: > 100 µM
[38]
  TGI: > 100 µM
[39]
  TGI: > 100 µM
[40]
  TGI: 98 µM
[41]
  TGI: > 100 µM
[42]
  TGI: > 100 µM
[43]
  TGI: > 100 µM
[44]
  TGI: 49.4 µM
[45]
  TGI: > 100 µM
[46]
  TGI: 33.4 µM
[47]
  TGI: > 100 µM
[48]
  TGI: > 100 µM
[49]
  TGI: > 100 µM
[50]
  TGI: > 100 µM
[51]
  TGI: > 100 µM
[52]
  TGI: > 100 µM
[53]
  TGI: 37.3 µM
[54]
  TGI: > 100 µM
[55]
  TGI: 85.9 µM
[56]
  TGI: 39.1 µM
[57]
  TGI: 43.5 µM

## O=C(O)CCS/C(=C\C(SCCC(=O)O)c1ccc(Cl)cc1)c1ccc(Cl)cc1 (stereo unspecified)
[1]
  TGI: > 100 µM
[2]
  TGI: 39 µM
[3]
  TGI: > 100 µM
[4]
  TGI: > 100 µM
[5]
  TGI: 87.5 µM
[6]
  TGI: > 100 µM
[7]
  TGI: > 100 µM
[8]
  TGI: 43.4 µM
[9]
  TGI: > 100 µM
[10]
  TGI: > 100 µM
[11]
  TGI: 54.7 µM
[12]
  TGI: 57.5 µM
[13]
  TGI: > 100 µM
[14]
  TGI: > 100 µM
[15]
  TGI: > 100 µM
[16]
  TGI: > 100 µM
[17]
  TGI: > 100 µM
[18]
  TGI: > 100 µM
[19]
  TGI: > 100 µM
[20]
  TGI: > 100 µM
[21]
  TGI: 65.4 µM
[22]
  TGI: 63.1 µM
[23]
  TGI: > 100 µM
[24]
  TGI: > 100 µM
[25]
  TGI: 60.9 µM
[26]
  TGI: > 100 µM
[27]
  TGI: > 100 µM
[28]
  TGI: > 100 µM
[29]
  TGI: > 100 µM
[30]
  TGI: > 100 µM
[31]
  TGI: > 100 µM
[32]
  TGI: > 100 µM
[33]
  TGI: > 100 µM
[34]
  TGI: > 100 µM
[35]
  TGI: 49 µM
[36]
  TGI: > 100 µM
[37]
  TGI: > 100 µM
[38]
  TGI: > 100 µM
[39]
  TGI: > 100 µM
[40]
  TGI: 95.6 µM
[58]
  TGI: > 100 µM
[41]
  TGI: > 100 µM
[42]
  TGI: > 100 µM
[43]
  TGI: > 100 µM
[44]
  TGI: 74.4 µM
[45]
  TGI: > 100 µM
[46]
  TGI: > 100 µM
[47]
  TGI: > 100 µM
[48]
  TGI: > 100 µM
[49]
  TGI: > 100 µM
[50]
  TGI: > 100 µM
[51]
  TGI: 78.5 µM
[52]
  TGI: > 100 µM
[53]
  TGI: > 100 µM
[54]
  TGI: > 100 µM
[59]
  TGI: > 100 µM
[55]
  TGI: > 100 µM
[56]
  TGI: 38.4 µM
[57]
  TGI: > 100 µM
